Assay results published in the supplement of paper PMC11962398.

What follows are test systems tested with T1, C[C@H]1CNCCN1c1nccc(-c2noc3c2CCC[C@@]32CCCc3sc(N)c(C#N)c32)n1 [BI-2493] (assay: 1 - AUC of viability dose-response curve (sensitivity) (fraction); higher = more sensitive). Details: 5 days.
Description: (§1)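 PRISM pooled barcoded cancer cell line viability screen (Broad Institute) with BI-2493 at 8 doses in threefold dilutions from 0.00457 to 10 µmol/L, 5-day treatment; curves fitted per cell line. IC50 is undefined (placeholder) for resistant lines. AUC is capped at 1, and sensitivity is reported as 1 − AUC.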

Test System | 1 - AUC of viability dose-response curve
PANC0403_PANCREAS | 0.379
PEDS005TPFAD_KIDNEY | 0.199
U2973_HAEMATOPOIETIC_AND_LYMPHOID_TISSUE | 0.33
HT1376_URINARY_TRACT | 0.175
NCO2_HAEMATOPOIETIC_AND_LYMPHOID_TISSUE | 0.117
ANGMCSS_CENTRAL_NERVOUS_SYSTEM | 0.0225
KCL22_HAEMATOPOIETIC_AND_LYMPHOID_TISSUE | 0.193
RPMI7951_SKIN | 0.0692
NCIH508_LARGE_INTESTINE | 0.088
PECAPJ15_UPPER_AERODIGESTIVE_TRACT | 0.125
PACADD161_PANCREAS | 0.185
SUPT11_HAEMATOPOIETIC_AND_LYMPHOID_TISSUE | 0.0681
TE8_OESOPHAGUS | 0.0526
OVCAR8_OVARY | 0.00937
KMCH1_BILIARY_TRACT | 0.013
NB1_AUTONOMIC_GANGLIA | 0.201
DETROIT562_UPPER_AERODIGESTIVE_TRACT | 0.18
MSTO211H_PLEURA | 0.136
RCC10RGB_KIDNEY | 0.0818
ECGI10_OESOPHAGUS | 0.15
NB4_HAEMATOPOIETIC_AND_LYMPHOID_TISSUE | 0.175
QGP1_PANCREAS | 0.253
MMNK1_BILIARY_TRACT | 0.0714
HCC827_LUNG | 0.0511

Test System | 1 - AUC of viability dose-response curve
PANC0203_PANCREAS | 0.327
HCC78_LUNG | 0.164
MKN45_STOMACH | 0.401
KLE_ENDOMETRIUM | 0.0854
KATOIII_STOMACH | 0.183
ES2_OVARY | 0.00984
CH157MN_CENTRAL_NERVOUS_SYSTEM | 0.0235
SKLU1_LUNG | 0.329
IM95_STOMACH | 0.152
SH10TC_STOMACH | 0.125
ICC4_BILIARY_TRACT | 0.184
EM2_HAEMATOPOIETIC_AND_LYMPHOID_TISSUE | 0.207
NCIH1437_LUNG | 0.153
SBC5_LUNG | 0.122
CW9019_SOFT_TISSUE | 0.111
EB1_HAEMATOPOIETIC_AND_LYMPHOID_TISSUE | 0.0219
ISHIKAWAHERAKLIO02ER_ENDOMETRIUM | 0.174
HKGZCC_BILIARY_TRACT | 0.281
U178_CENTRAL_NERVOUS_SYSTEM | 0.139
YD10B_UPPER_AERODIGESTIVE_TRACT | 0.0787
NCIH841_LUNG | 0.162
MEG01_HAEMATOPOIETIC_AND_LYMPHOID_TISSUE | 0.0154
SF295_CENTRAL_NERVOUS_SYSTEM | 0.0199
TE5_OESOPHAGUS | 0.0423

Test System | 1 - AUC of viability dose-response curve
L363_HAEMATOPOIETIC_AND_LYMPHOID_TISSUE | 0.041
SKUT1_SOFT_TISSUE | 0.207
KMS18_HAEMATOPOIETIC_AND_LYMPHOID_TISSUE | 0.13
BEN_LUNG | 0.264
HCC1359_LUNG | 0.00729
786O_KIDNEY | 0.241
DU4475_BREAST | 0.151
RERFLCAD2_LUNG | 0.12
NCIH196_LUNG | 0.0864
JEKO1_HAEMATOPOIETIC_AND_LYMPHOID_TISSUE | 0.0886
J82_URINARY_TRACT | 0.122
UMUC7_URINARY_TRACT | 0.14
CL34_LARGE_INTESTINE | 0.00172
PF382_HAEMATOPOIETIC_AND_LYMPHOID_TISSUE | 0.102
SH4_SKIN | 0.0518
KNS60_CENTRAL_NERVOUS_SYSTEM | 0.0228
MCF7_BREAST | 0.0329
NCIH322_LUNG | 0.257
NCIH1650_LUNG | 0.042
TC106_BONE | 0.108
KHM1B_HAEMATOPOIETIC_AND_LYMPHOID_TISSUE | 0.106
SNU1077_ENDOMETRIUM | 0.0934
MDAMB361_BREAST | 0.14
WM983B_SKIN | 0.038

Test System | 1 - AUC of viability dose-response curve
UMUC1_URINARY_TRACT | 0.226
HCC1937_BREAST | 0.143
KMS28BM_HAEMATOPOIETIC_AND_LYMPHOID_TISSUE | 0.00817
NCIH1299_LUNG | 0.0368
MCC142_SKIN | 0.0347
SNU668_STOMACH | 0.234
TE1_OESOPHAGUS | 0.0344
NCIH520_LUNG | 0.0795
MEWO_SKIN | 0.0577
RI1_HAEMATOPOIETIC_AND_LYMPHOID_TISSUE | 0.106
SW1088_CENTRAL_NERVOUS_SYSTEM | 0.159
HCC1143_BREAST | 0.106
NCIH727_LUNG | 0.129
A375_SKIN | 0.016
UMUC5_URINARY_TRACT | 0.0622
VAESBJ_SOFT_TISSUE | 0.00971
SKGT2_STOMACH | 0.00814
NCIH596_LUNG | 0.00278
HEP3B217_LIVER | 0.0726
LN18_CENTRAL_NERVOUS_SYSTEM | 0.0792
PECAPJ41CLONED2_UPPER_AERODIGESTIVE_TRACT | 0.0352

These test systems were tested with T1, BI-2493 (assay: not given). Details: 5 days.
Description: as §1

Test System | IC50 of cell viability [µM]
PANC0403_PANCREAS | 0.501
PEDS005TPFAD_KIDNEY | 4.24
U2973_HAEMATOPOIETIC_AND_LYMPHOID_TISSUE | 0.921
HT1376_URINARY_TRACT | 5.68
NCO2_HAEMATOPOIETIC_AND_LYMPHOID_TISSUE | 4.33
ANGMCSS_CENTRAL_NERVOUS_SYSTEM | > 10
KCL22_HAEMATOPOIETIC_AND_LYMPHOID_TISSUE | 6.3
RPMI7951_SKIN | 6.06
NCIH508_LARGE_INTESTINE | > 10
PECAPJ15_UPPER_AERODIGESTIVE_TRACT | 5.35
PACADD161_PANCREAS | 5.87
SUPT11_HAEMATOPOIETIC_AND_LYMPHOID_TISSUE | 5.2
TE8_OESOPHAGUS | > 10
OVCAR8_OVARY | 9.61
KMCH1_BILIARY_TRACT | 9.41
NB1_AUTONOMIC_GANGLIA | 3.3
DETROIT562_UPPER_AERODIGESTIVE_TRACT | 2.81
MSTO211H_PLEURA | 3.67
RCC10RGB_KIDNEY | 6.59
ECGI10_OESOPHAGUS | 4.75
NB4_HAEMATOPOIETIC_AND_LYMPHOID_TISSUE | 2.53
QGP1_PANCREAS | 1.55
MMNK1_BILIARY_TRACT | 4.9
HCC827_LUNG | 7.98

Test System | IC50 of cell viability [µM]
PANC0203_PANCREAS | 1.16
HCC78_LUNG | 7.51
MKN45_STOMACH | 0.5
KLE_ENDOMETRIUM | 4.68
KATOIII_STOMACH | 4.3
ES2_OVARY | 9.51
CH157MN_CENTRAL_NERVOUS_SYSTEM | 8.61
SKLU1_LUNG | 1
IM95_STOMACH | 4.31
SH10TC_STOMACH | 4.52
ICC4_BILIARY_TRACT | 3.75
EM2_HAEMATOPOIETIC_AND_LYMPHOID_TISSUE | 4.85
NCIH1437_LUNG | 4.73
SBC5_LUNG | 5.31
CW9019_SOFT_TISSUE | 3.99
EB1_HAEMATOPOIETIC_AND_LYMPHOID_TISSUE | 9.47
ISHIKAWAHERAKLIO02ER_ENDOMETRIUM | 6.65
HKGZCC_BILIARY_TRACT | 1.41
U178_CENTRAL_NERVOUS_SYSTEM | 7.8
YD10B_UPPER_AERODIGESTIVE_TRACT | 5.08
NCIH841_LUNG | 6.98
MEG01_HAEMATOPOIETIC_AND_LYMPHOID_TISSUE | 9.19
SF295_CENTRAL_NERVOUS_SYSTEM | 9.02
TE5_OESOPHAGUS | 9.08

Test System | IC50 of cell viability [µM]
L363_HAEMATOPOIETIC_AND_LYMPHOID_TISSUE | 7.78
SKUT1_SOFT_TISSUE | 4.83
KMS18_HAEMATOPOIETIC_AND_LYMPHOID_TISSUE | 5.38
BEN_LUNG | 1.62
HCC1359_LUNG | 9.67
786O_KIDNEY | 2.69
DU4475_BREAST | 2.96
RERFLCAD2_LUNG | 4.39
NCIH196_LUNG | 6.4
JEKO1_HAEMATOPOIETIC_AND_LYMPHOID_TISSUE | 5.06
J82_URINARY_TRACT | 5.23
UMUC7_URINARY_TRACT | > 10
CL34_LARGE_INTESTINE | > 10
PF382_HAEMATOPOIETIC_AND_LYMPHOID_TISSUE | 5.53
SH4_SKIN | 6.75
KNS60_CENTRAL_NERVOUS_SYSTEM | 9.53
MCF7_BREAST | 8.66
NCIH322_LUNG | 2.29
NCIH1650_LUNG | 8.06
TC106_BONE | 5.11
KHM1B_HAEMATOPOIETIC_AND_LYMPHOID_TISSUE | 3.77
SNU1077_ENDOMETRIUM | 8.81
MDAMB361_BREAST | > 10
WM983B_SKIN | 7.98

Test System | IC50 of cell viability [µM]
UMUC1_URINARY_TRACT | 2.29
HCC1937_BREAST | > 10
KMS28BM_HAEMATOPOIETIC_AND_LYMPHOID_TISSUE | 9.91
NCIH1299_LUNG | 8.5
MCC142_SKIN | 9.48
SNU668_STOMACH | 6.46
TE1_OESOPHAGUS | 9.58
NCIH520_LUNG | > 10
MEWO_SKIN | 9.6
RI1_HAEMATOPOIETIC_AND_LYMPHOID_TISSUE | 6.4
SW1088_CENTRAL_NERVOUS_SYSTEM | 8.8
HCC1143_BREAST | 9.86
NCIH727_LUNG | 6.54
A375_SKIN | 9.23
UMUC5_URINARY_TRACT | 7.6
VAESBJ_SOFT_TISSUE | 9.61
SKGT2_STOMACH | 9.72
NCIH596_LUNG | > 10
HEP3B217_LIVER | 6.95
LN18_CENTRAL_NERVOUS_SYSTEM | 6.48
PECAPJ41CLONED2_UPPER_AERODIGESTIVE_TRACT | 8.74
